Where a name gives a salt, the structure may show the parent alone.
Test system: patients with relapsed or refractory acute myeloid leukemia or high‐risk myelodysplastic syndromes
Conditions: human, in vivo
Description: This was a phase 1, open‐label, non‐randomized dose escalation study of milademetan as monotherapy (Part 1) or in combination with AZA (Part 1A; ClinicalTrials.gov identifier: NCT02319369).
Dose escalation of milademetan to determine the maximum tolerated dose (MTD) was guided by a Bayesian logistic regression model (BLRM) following escalation with overdose control principle with a starting dose of 60 mg based on safety and tolerability data from the first‐in‐human study of milademetan in solid tumors or lymphoma.[20]
In Part 1, 9 escalating dose cohorts (Figure S1) were investigated.
In Part 1A, milademetan was given in combination with AZA (75 mg/m^2 dose administered subcutaneously or intravenously on Days 1–7) with 2 dosing schedules of milademetan: in Cohorts 10 and 12, milademetan was administered QD for 10 days (Days 5–14; 160 and 200 mg, respectively); in Cohorts 11 and 13 milademetan was given QD for 7 days (Days 8–14; 160 and 200 mg, respectively).
Safety was the primary endpoint of the study and included treatment‐emergent adverse events (TEAE), serious adverse events (SAE), dose‐limiting toxicities (DLT), physical examination findings, and clinical laboratory values. TEAE were categorized according to the Medical Dictionary for Regulatory Activities (MeDRA) v17.0 and graded according to the National Cancer Institute‐Common Terminology for Adverse Events (NCI‐CTCAE) v5.0. Participants were followed up until 30 days after completion of study treatment. A DLT was defined as any TEAE of grade ≥3 not attributable to disease or disease‐related processes occurring during Cycle 1 in each dose‐level cohort.
The final MTD for each dosing regimen (QD 21/28 dosing and others) was decided based on considerations of the respective MTD estimated by the BLRM and on an overall assessment of safety data from subsequent cycles and pharmacokinetics (PK)/pharmacodynamics (PD) information collected at all different doses tested.
Cohorts of ≥3 DLT evaluable participants were enrolled per dose level, and the dose escalation decisions were guided by BLRM, governed by escalation with overdose control principle.

## CC1(C)CCC2(CC1)N[C@@H](C(=O)N[C@@H]1CC[C@@H](C(N)=O)OC1)[C@H](c1ccnc(Cl)c1F)[C@]21C(=O)Nc2cc(Cl)ccc21 [Milademetan monotherapy, milademetan tosylate hydrate]
  Abdominal pain, TEAE Grade ≥3: 1 (2) n (%)
  Cough, TEAE Grade ≥3: 0 n (%)
  Cough, TEAE all grades: 3 (5) n (%)
  Decreased appetite, TEAE Grade ≥3: 1 (2) n (%)
  Decreased appetite, TEAE all grades: 13 (23) n (%)
  Dehydration, TEAE Grade ≥3: 1 (2) n (%)
  Dehydration, TEAE all grades: 6 (11) n (%)
  Depression, TEAE Grade ≥3: 0 n (%)
  Depression, TEAE all grades: 2 (4) n (%)
  Device‐related infection, TEAE Grade ≥3: 0 n (%)
  Device‐related infection, TEAE all grades: 0 n (%)
  Diarrhea, TEAE Grade ≥3: 3 (5) n (%)
  Diarrhea, TEAE all grades: 32 (56) n (%)
  Diarrhea, most common (>20%) TEAE: 25 [44%] n [%]
  Dizziness, TEAE Grade ≥3: 1 (2) n (%)
  Dizziness, TEAE all grades: 6 (11) n (%)
  Dyspnea, TEAE Grade ≥3: 0 n (%)
  Dyspnea, TEAE all grades: 8 (14) n (%)
  Epistaxis, TEAE Grade ≥3: 0 n (%)
  Epistaxis, TEAE all grades: 1 (2) n (%)
  Escherichia infection, TEAE Grade ≥3: 0 n (%)
  Escherichia infection, TEAE all grades: 0 n (%)
  Fatigue, TEAE Grade ≥3: 4 (7) n (%)
  Hyperuricemia, TEAE Grade ≥3: 2 (4) n (%)
  Hyperuricemia, TEAE all grades: 6 (11) n (%)
  Hypokalemia, TEAE Grade ≥3: 3 (5) n (%)
  Hypokalemia, TEAE all grades: 12 (21) n (%)
  Hypomagnesemia, TEAE Grade ≥3: 0 n (%)
  Hypomagnesemia, TEAE all grades: 9 (16) n (%)
  Hyponatremia, TEAE Grade ≥3: 2 (4) n (%)
  Hyponatremia, TEAE all grades: 2 (4) n (%)
  Hypophosphatemia, TEAE Grade ≥3: 0 n (%)
  Hypophosphatemia, TEAE all grades: 0 n (%)
  Hypotension, TEAE Grade ≥3: 2 (4) n (%)
  Hypotension, TEAE all grades: 9 (16) n (%)
  Increased ALT, TEAE Grade ≥3: 0 n (%)
  Increased ALT, TEAE all grades: 1 (2) n (%)
  Insomnia, TEAE Grade ≥3: 0 n (%)
  Insomnia, TEAE all grades: 4 (7) n (%)
  Lung infection, TEAE Grade ≥3: 11 (19) n (%)
  Lung infection, TEAE all grades: 11 (19) n (%)
  Maculopapular rash, TEAE Grade ≥3: 0 n (%)
  Maculopapular rash, TEAE all grades: 2 (4) n (%)
  Muscular weakness, TEAE all grades: 2 (4) n (%)
  Myalgia, TEAE Grade ≥3: 0 n (%)
  Myalgia, TEAE all grades: 1 (2) n (%)
  Nausea, TEAE Grade ≥3: 4 (7) n (%)
  Nausea, TEAE all grades: 39 (68) n (%)
  Nausea, most common (>20%) TEAE: 32 [56%] n [%]
  Neutropenia, TEAE Grade ≥3: 10 (18) n (%)
  Neutropenia, TEAE all grades: 10 (18) n (%)
  Oropharyngeal pain, TEAE Grade ≥3: 0 n (%)
  Oropharyngeal pain, TEAE all grades: 3 (5) n (%)
  Pancytopenia, TEAE Grade ≥3: 0 n (%)
  Pancytopenia, TEAE all grades: 0 n (%)
  Participants with DLT of cellulitis: 1 participant
  Participants with DLT of diarrhea: 1 participant
  Participants with DLT of fatigue: 1 participant
  Participants with DLT of hypokalemia: 1 participant
  Participants with DLT of nausea: 3 participants
  Participants with DLT of renal failure: 1 participant
  Participants with DLT of vomiting: 1 participant
  Peripheral edema, TEAE Grade ≥3: 0 n (%)
  Peripheral edema, TEAE all grades: 14 (25) n (%)
